Assay results published in publication PMC8429728, “TNK1 is a ubiquitin-binding and 14-3-3-regulated kinase that can be targeted to block tumor growth” (Nature Communications, 2021).
Where two headings read alike, the source gives them in different places.

Experiments:
LYN = LYN (Homo sapiens, UniProt P07948); assay: biochemical; set-up: Reaction Biology 371-kinase panel at Km ATP, per cent enzyme activity relative to DMSO, single dose in duplicate; details: duplicate measurements, Km ATP
Experimental: (§1) To assess kinase selectivity, we screened TP-5801 (300 nM) against a panel of 371 kinases in vitro. […] In addition to TNK1, only 7 other kinases were inhibited by more than 90% (Supplementary Fig. 8 and Supplementary Data 2). […] The resulting % Enzyme activity (relative to DMSO controls) were plotted in GraphPad and IC50 values were determined by sigmoidal dose-response (variable slope) curve fits, with a bottom constraint of 0.

BMX/ETK = BMX/ETK (Homo sapiens, UniProt P51813); assay: biochemical; set-up: Reaction Biology 371-kinase panel at Km ATP, per cent enzyme activity relative to DMSO, single dose in duplicate; details: duplicate measurements, Km ATP
Experimental: as §1

STK32B/YANK2 = STK32B/YANK2 (Homo sapiens, UniProt Q9NY57); assay: biochemical; set-up: Reaction Biology 371-kinase panel at Km ATP, per cent enzyme activity relative to DMSO, single dose in duplicate; details: duplicate measurements, Km ATP
Experimental: as §1

MKK7 = biological target: T1, MKK7 (Homo sapiens, UniProt O14733); assay: biochemical; set-up: Reaction Biology 371-kinase panel at Km ATP, per cent enzyme activity relative to DMSO, single dose in duplicate; details: duplicate measurements, Km ATP
T1 construct: gene MAP2K7
Experimental: as §1

EPHA2 = EPHA2 (Homo sapiens, UniProt P29317); assay: biochemical; set-up: Reaction Biology 371-kinase panel at Km ATP, per cent enzyme activity relative to DMSO, single dose in duplicate; details: duplicate measurements, Km ATP
Experimental: as §1

p70S6Kb/RPS6KB2 = p70S6Kb/RPS6KB2 (Homo sapiens, UniProt Q9UBS0); assay: biochemical; set-up: Reaction Biology 371-kinase panel at Km ATP, per cent enzyme activity relative to DMSO, single dose in duplicate; details: duplicate measurements, Km ATP
Experimental: as §1

BMPR2 = BMPR2 (Homo sapiens, UniProt Q13873); assay: biochemical; set-up: Reaction Biology 371-kinase panel at Km ATP, per cent enzyme activity relative to DMSO, single dose in duplicate; details: duplicate measurements, Km ATP
Experimental: as §1

NEK1 = NEK1 (Homo sapiens, UniProt Q96PY6); assay: biochemical; set-up: Reaction Biology 371-kinase panel at Km ATP, per cent enzyme activity relative to DMSO, single dose in duplicate; details: duplicate measurements, Km ATP
Experimental: as §1

HIPK3 = HIPK3 (Homo sapiens, UniProt Q9H422); assay: biochemical; set-up: Reaction Biology 371-kinase panel at Km ATP, per cent enzyme activity relative to DMSO, single dose in duplicate; details: duplicate measurements, Km ATP
Experimental: as §1

NLK = NLK (Homo sapiens, UniProt Q9UBE8); assay: biochemical; set-up: Reaction Biology 371-kinase panel at Km ATP, per cent enzyme activity relative to DMSO, single dose in duplicate; details: duplicate measurements, Km ATP
Experimental: as §1

EPHB1 = EPHB1 (Homo sapiens, UniProt P54762); assay: biochemical; set-up: Reaction Biology 371-kinase panel at Km ATP, per cent enzyme activity relative to DMSO, single dose in duplicate; details: duplicate measurements, Km ATP
Experimental: as §1

MAST3 = MAST3 (Homo sapiens, UniProt O60307); assay: biochemical; set-up: Reaction Biology 371-kinase panel at Km ATP, per cent enzyme activity relative to DMSO, single dose in duplicate; details: duplicate measurements, Km ATP
Experimental: as §1

Aurora A = biological target: T2, Aurora A (Homo sapiens, UniProt O14965); assay: radiometric […]-ATP kinase assay with recombinant kinase at Km ATP ([…]); assay type: biochemical
T2 construct: gene AURKA
T2 sequence (O14965 1-403): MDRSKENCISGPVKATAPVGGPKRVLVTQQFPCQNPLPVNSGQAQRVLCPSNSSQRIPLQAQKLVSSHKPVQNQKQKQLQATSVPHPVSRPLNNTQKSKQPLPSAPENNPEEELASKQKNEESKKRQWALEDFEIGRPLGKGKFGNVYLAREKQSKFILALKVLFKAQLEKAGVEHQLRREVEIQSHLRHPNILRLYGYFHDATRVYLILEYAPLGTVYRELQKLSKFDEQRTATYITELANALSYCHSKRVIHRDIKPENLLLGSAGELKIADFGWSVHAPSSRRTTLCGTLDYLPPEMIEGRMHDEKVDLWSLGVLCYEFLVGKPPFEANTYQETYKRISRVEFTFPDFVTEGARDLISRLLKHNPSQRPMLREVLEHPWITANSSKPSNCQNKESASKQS

TNK1 = biological target: T3, TNK1 (Homo sapiens, UniProt Q13470); assay: radiometric […]-ATP kinase assay with recombinant kinase at Km ATP ([…]); supported by NanoBRET target engagement in HEK293 cells (IC50 […]); assay type: biochemical
T3 sequence (Q13470 1-666): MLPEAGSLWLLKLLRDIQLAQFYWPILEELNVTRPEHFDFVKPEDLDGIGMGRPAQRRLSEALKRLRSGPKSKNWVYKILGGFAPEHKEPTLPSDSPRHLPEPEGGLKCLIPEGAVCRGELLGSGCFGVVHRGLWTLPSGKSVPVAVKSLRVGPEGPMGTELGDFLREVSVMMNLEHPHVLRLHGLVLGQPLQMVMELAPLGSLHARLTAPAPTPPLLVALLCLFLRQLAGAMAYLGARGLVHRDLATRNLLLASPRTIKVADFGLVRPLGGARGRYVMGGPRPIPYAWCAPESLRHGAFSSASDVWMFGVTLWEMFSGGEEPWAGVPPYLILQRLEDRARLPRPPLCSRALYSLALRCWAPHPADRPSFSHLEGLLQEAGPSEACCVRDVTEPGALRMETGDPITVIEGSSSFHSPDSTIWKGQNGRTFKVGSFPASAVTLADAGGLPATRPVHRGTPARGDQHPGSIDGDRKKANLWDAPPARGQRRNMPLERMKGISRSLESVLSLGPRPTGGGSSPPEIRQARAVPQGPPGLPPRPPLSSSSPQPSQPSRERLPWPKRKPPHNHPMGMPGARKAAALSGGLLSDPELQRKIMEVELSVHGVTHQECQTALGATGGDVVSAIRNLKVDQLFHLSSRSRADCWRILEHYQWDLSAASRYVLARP

[1] = read-out: % Enzyme Activity (relative to DMSO controls) / TP-0005801 (0.3µM) / Data 1
[2] = read-out: % Enzyme Activity (relative to DMSO controls) / TP-0005801 (0.3µM) / Data 2

T1 sequence (O14733 whole entry): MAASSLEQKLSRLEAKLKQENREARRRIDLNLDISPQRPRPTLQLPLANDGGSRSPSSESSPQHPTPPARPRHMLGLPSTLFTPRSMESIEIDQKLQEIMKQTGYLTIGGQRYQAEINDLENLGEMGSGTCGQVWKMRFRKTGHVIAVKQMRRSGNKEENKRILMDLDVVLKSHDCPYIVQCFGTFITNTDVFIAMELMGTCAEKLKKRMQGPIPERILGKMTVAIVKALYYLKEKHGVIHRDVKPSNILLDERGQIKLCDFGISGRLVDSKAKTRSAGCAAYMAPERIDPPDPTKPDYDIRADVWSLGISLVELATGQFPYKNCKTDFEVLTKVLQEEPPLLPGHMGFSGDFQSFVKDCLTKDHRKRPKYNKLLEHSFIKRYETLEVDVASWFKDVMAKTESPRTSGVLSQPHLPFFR
Sequence of STK32B/YANK2 (Q9NY57 whole entry): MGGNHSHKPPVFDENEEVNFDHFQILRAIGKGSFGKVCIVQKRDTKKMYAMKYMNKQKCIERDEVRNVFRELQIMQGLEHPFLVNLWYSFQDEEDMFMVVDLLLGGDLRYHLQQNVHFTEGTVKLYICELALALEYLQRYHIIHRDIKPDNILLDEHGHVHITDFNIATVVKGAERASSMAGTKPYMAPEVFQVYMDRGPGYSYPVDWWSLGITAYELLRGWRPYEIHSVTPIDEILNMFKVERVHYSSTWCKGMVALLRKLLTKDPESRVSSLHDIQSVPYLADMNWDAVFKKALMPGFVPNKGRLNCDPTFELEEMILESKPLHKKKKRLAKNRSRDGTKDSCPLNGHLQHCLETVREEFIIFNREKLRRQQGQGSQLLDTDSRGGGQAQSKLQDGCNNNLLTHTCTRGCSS
Sequence of p70S6Kb/RPS6KB2 (Q9UBS0 whole entry): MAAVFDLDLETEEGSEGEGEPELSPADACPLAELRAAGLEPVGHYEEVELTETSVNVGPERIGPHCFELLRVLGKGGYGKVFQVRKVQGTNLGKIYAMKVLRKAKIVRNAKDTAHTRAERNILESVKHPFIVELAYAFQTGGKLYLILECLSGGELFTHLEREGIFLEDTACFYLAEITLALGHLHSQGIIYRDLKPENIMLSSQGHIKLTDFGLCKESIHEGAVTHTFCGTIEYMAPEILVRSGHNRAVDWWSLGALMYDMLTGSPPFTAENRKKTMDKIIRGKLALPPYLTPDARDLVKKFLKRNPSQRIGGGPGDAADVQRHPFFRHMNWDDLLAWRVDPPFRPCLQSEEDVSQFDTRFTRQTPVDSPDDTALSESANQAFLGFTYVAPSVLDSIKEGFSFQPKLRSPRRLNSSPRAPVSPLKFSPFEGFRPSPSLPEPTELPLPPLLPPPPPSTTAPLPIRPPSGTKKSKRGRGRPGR
Sequence of HIPK3 (Q9H422 whole entry): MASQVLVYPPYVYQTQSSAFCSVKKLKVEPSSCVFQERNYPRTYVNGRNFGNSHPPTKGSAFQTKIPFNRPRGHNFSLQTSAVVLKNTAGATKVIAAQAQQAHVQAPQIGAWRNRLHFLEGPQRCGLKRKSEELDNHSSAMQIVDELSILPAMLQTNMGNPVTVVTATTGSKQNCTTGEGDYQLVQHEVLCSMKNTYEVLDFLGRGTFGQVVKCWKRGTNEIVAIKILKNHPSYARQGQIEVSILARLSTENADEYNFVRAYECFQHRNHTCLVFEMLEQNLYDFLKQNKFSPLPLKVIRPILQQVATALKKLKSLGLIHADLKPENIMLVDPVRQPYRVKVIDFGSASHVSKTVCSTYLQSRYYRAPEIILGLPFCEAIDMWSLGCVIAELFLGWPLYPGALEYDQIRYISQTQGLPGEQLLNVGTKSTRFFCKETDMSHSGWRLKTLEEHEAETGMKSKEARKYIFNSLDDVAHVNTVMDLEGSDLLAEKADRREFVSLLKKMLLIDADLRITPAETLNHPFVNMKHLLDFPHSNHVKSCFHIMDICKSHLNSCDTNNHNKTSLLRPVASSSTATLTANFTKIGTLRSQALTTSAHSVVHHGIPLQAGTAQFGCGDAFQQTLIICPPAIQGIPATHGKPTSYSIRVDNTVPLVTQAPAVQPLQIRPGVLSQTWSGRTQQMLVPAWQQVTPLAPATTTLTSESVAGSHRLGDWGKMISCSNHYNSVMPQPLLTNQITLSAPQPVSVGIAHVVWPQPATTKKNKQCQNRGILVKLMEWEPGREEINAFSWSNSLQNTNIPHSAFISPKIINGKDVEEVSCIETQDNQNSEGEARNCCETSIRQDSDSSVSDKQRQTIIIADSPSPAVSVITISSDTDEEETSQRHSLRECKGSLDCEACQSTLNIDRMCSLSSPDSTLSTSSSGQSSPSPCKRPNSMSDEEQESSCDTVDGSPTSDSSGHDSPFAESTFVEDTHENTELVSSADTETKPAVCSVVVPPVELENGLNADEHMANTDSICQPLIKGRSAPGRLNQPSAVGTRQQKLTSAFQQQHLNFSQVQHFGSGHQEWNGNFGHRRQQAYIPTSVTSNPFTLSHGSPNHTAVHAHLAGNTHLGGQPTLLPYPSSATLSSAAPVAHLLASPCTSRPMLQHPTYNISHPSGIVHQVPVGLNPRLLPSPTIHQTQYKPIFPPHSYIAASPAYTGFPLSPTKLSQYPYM
Sequence of NLK (Q9UBE8 whole entry): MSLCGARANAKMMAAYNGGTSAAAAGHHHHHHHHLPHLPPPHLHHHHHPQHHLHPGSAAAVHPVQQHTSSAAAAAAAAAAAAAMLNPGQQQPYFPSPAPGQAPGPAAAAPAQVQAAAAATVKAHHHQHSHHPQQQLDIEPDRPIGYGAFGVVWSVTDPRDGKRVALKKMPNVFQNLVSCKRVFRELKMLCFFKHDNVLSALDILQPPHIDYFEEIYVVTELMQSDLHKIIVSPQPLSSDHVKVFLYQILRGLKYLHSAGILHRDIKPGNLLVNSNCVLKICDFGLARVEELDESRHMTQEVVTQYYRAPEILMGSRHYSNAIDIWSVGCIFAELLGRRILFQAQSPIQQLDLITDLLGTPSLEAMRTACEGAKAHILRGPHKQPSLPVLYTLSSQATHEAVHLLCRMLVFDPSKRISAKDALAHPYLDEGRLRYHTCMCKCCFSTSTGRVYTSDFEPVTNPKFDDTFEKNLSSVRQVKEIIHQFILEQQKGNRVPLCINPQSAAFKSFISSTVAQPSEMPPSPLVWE
Sequence of NEK1 (Q96PY6 whole entry): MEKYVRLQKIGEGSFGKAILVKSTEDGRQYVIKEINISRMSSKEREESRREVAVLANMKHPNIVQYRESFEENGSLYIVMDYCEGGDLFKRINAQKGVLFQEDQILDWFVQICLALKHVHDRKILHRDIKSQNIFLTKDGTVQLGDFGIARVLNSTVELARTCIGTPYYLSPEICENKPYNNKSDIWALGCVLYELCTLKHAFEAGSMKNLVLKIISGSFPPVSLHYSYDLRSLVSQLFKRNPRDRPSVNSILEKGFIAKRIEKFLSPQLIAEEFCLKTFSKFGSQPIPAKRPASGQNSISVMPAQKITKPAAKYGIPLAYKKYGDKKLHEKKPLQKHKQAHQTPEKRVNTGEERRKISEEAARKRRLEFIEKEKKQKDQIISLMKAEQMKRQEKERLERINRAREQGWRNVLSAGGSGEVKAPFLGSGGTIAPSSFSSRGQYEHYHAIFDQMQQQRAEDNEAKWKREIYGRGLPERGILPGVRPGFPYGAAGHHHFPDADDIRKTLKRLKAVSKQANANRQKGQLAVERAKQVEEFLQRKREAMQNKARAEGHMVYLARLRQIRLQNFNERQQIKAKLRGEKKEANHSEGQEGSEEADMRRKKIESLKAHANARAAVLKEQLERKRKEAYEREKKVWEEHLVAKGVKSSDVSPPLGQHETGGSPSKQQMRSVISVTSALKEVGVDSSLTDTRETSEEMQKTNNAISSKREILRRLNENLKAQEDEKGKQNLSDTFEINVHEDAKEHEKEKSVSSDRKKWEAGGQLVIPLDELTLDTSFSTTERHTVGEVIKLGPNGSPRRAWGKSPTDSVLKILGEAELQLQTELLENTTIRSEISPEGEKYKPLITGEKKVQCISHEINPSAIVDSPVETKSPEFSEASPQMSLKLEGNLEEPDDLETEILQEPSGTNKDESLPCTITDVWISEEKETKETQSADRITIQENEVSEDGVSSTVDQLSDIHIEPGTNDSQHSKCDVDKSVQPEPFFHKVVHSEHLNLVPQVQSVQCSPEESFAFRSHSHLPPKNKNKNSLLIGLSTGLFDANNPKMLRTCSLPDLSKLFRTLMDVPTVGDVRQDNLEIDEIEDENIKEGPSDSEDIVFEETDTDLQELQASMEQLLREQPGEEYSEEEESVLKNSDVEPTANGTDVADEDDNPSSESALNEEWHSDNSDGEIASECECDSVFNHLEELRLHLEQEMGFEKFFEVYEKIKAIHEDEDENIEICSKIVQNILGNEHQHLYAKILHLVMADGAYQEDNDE
Sequence of LYN (P07948 whole entry): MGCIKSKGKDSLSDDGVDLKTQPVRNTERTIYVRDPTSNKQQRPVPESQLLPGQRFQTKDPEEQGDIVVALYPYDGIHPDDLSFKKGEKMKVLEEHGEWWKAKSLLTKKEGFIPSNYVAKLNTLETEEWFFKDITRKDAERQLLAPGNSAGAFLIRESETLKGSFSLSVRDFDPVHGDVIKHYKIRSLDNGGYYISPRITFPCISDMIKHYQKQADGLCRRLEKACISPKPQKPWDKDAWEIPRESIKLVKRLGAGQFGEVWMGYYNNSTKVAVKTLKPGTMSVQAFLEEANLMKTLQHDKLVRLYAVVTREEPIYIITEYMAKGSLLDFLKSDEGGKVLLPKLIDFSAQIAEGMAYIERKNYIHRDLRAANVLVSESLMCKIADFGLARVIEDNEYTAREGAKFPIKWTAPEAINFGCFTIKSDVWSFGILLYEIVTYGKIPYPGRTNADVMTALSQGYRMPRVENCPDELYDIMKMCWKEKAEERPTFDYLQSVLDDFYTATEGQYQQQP

COc1cc(N2CCN(C)CC2)c(C)cc1Nc1ncc(Br)c(Nc2cccnc2N(C)C)n1 [TP-5801]
remaining activity at 0.3 µM (LYN; [1]): 70.1%
remaining activity at 0.3 µM (LYN; [2]): 69.8%
remaining activity at 0.3 µM (BMX/ETK; [1]): 115%
remaining activity at 0.3 µM (BMX/ETK; [2]): 114%
remaining activity at 0.3 µM (STK32B/YANK2; [1]): 96.4%
remaining activity at 0.3 µM (STK32B/YANK2; [2]): 94.8%
remaining activity at 0.3 µM (MKK7; [1]): 103%
remaining activity at 0.3 µM (MKK7; [2]): 102%
remaining activity at 0.3 µM (EPHA2; [1]): 98.3%
remaining activity at 0.3 µM (EPHA2; [2]): 95.9%
remaining activity at 0.3 µM (p70S6Kb/RPS6KB2; [1]): 95.7%
remaining activity at 0.3 µM (p70S6Kb/RPS6KB2; [2]): 90.1%
remaining activity at 0.3 µM (BMPR2; [1]): 89.7%
remaining activity at 0.3 µM (BMPR2; [2]): 89.2%
remaining activity at 0.3 µM (NEK1; [1]): 105%
remaining activity at 0.3 µM (NEK1; [2]): 104%
remaining activity at 0.3 µM (HIPK3; [1]): 91.9%
remaining activity at 0.3 µM (HIPK3; [2]): 85.6%
remaining activity at 0.3 µM (NLK; [1]): 92.3%
remaining activity at 0.3 µM (NLK; [2]): 85.8%
remaining activity at 0.3 µM (EPHB1; [1]): 90.7%
remaining activity at 0.3 µM (EPHB1; [2]): 89%
remaining activity at 0.3 µM (MAST3; [1]): 101%
remaining activity at 0.3 µM (MAST3; [2]): 100%
IC50 (Aurora A): 5380 nM
IC50 (TNK1): 1.4 nM
